Measured values reported in publication PMC4425608 (Pharmaceutical research, 2014).
Entries after “also recorded” stand apart in the source; their conditions may differ. Read-outs that look alike come from different tables or passages of the source.

Experiments:
GHB uptake in KNRK cells = assay: Inhibition of [3H]GHB uptake in KNRK cells; type: cell-based; conditions: rat KNRK cells
MCT2 = conditions: expressed in Xenopus laevis oocytes; cited from earlier work
MCT4 = conditions: expressed in Xenopus laevis oocytes; cited from earlier work
[1] = Pharmacokinetics of AR-C155858 in rats following intravenous administration; conditions: 0.1, 1, and 5 mg/kg i.v. bolus
[2] = rats, mean (SD), cited from earlier work
[3] = tested on: GHB-induced respiratory depression; conditions: rats, mean (SD), cited from earlier work
[4] = GHB blood-brain partitioning at steady state; conditions: rats; GHB 400 mg/kg i.v. bolus + 208 mg/kg/h i.v. infusion alone; 4 h; mean ± SD
[5] = Oral GHB toxicokinetics with and without AR-C155858
[6] = rats, cited from earlier work
[7] = GHB 1500 mg/kg i.v. bolus alone
[8] = male, Sprague-Dawley, rat, plasma, po, 1500 mg/kg
[9] = rats, GHB 1500 mg/kg oral gavage alone, mean (SD)

With Cc1n[nH]c(C)c1Cc1sc2c(c1C(=O)N1C[C@H](O)CO1)c(=O)n(C)c(=O)n2CC(C)C [AR-C155858, 6-[(3,5-Dimethyl-1H-pyrazol-4-yl)methyl]-5-[[(4S)-4-hydroxy-2-isoxazolidinyl]carbonyl]-3-methyl-1-(2-methylpropyl)thieno[2,3-d]pyrimidine-2,4(1H,3H)-dione] the “pre-incubation time giving maximal inhibition of GHB uptake” value (GHB uptake in KNRK cells; 100 nM AR-C155858, pre-incubation 0-60 min) was 30 min, the “concentration giving maximal inhibition of GHB uptake” value (GHB uptake in KNRK cells; 30 min pre-incubation) was 100 nM and the “reversibility of inhibition of GHB uptake after washing the cells” value (GHB uptake in KNRK cells; 30 min pre-incubation with 100 nM, washed 3 times) was “not to be rapidly reversible”. For the same molecule, the “inhibition of GHB uptake” value (GHB uptake in KNRK cells; linear trend in inhibition up to 30 nM, 30 min pre-incubation) was 70%, the “inhibition of MCT2” value (MCT2) was “potently inhibited; also recorded: can also inhibit” and the “inhibition of MCT4” value (MCT4) was “no inhibition; also recorded: does not inhibit”. The “AR-C155858 plasma concentration-time profile” value [1] was “biexponential decline and dose-proportional pharmacokinetics”.

In the case of O=C(O)CCCO [GHB, γ-hydroxybutyric acid], the “GHB AUC” value ([2]; GHB 200 mg/kg i.v. bolus alone) is given as 26.2 (0.90) mg.min/ml, the “GHB CLR (renal clearance)” value ([2]; GHB 200 mg/kg i.v. bolus alone) is given as 0.44 (0.20) ml/min/kg and the “GHB CLT (total clearance)” value ([2]; GHB 200 mg/kg i.v. bolus alone) is given as 7.60 (0.29) ml/min/kg. The GHB urinary recovery ([2]; GHB 200 mg/kg i.v. bolus alone) was 5.90 (2.86) %, the “GHB AUC” value ([2]; GHB 600 mg/kg i.v. bolus alone) was 102 (12.4) mg.min/ml and the “GHB CLR (renal clearance)” value ([2]; GHB 600 mg/kg i.v. bolus alone) was 1.68 (0.75) ml/min/kg. For the same molecule, the GHB urinary recovery ([2]; GHB 600 mg/kg i.v. bolus alone) was 27.3 (9.77) %, the “GHB AUC” value [2, 7] was 288 (39.8) mg.min/ml and the “GHB CLT (total clearance)” value [2, 7] was 5.16 (0.70) ml/min/kg. The GHB urinary recovery [2, 7] was 61.1 (5.02) %, the “AUEC, area under the effect curve for breathing frequency” value (shortened to “AUEC, area under the effect curve”) ([3]; GHB 200 mg/kg i.v. bolus alone) was 2243 (1508) breaths and the “Emax, maximum effect on breathing frequency” value (shortened to “Emax, maximum effect”) ([3]; GHB 200 mg/kg i.v. bolus alone) was 51.9 (8.51) breaths/ min. For the same molecule, the “Td, duration of effect on breathing frequency” value (“Td, duration of effect” below) ([3]; GHB 200 mg/kg i.v. bolus alone) was 113 (60.6) min, the “AUEC, area under the effect curve” value ([3]; GHB 600 mg/kg i.v. bolus alone) was 7987 (1228) breaths and the “Emax, maximum effect” value ([3]; GHB 600 mg/kg i.v. bolus alone) was 29.5 (6.94) breaths/ min. For the same molecule, the “Td, duration of effect” value ([3]; GHB 600 mg/kg i.v. bolus alone) was 153 (12.5) min, the “AUEC, area under the effect curve” value [3, 7] was 12505 (1995) breaths and the “Emax, maximum effect” value [3, 7] was 15.6 (7.05) breaths/ min. The “Td, duration of effect” value [3, 7] was 281 (72.8) min, the “Cbrain, brain GHB concentration at steady-state” value [4] was 0.22 ± 0.03 mg/g and the “Cplasma, plasma GHB concentration at steady-state” value [4] was 0.87 ± 0.05 mg/mL. The CL/F [5, 8] was 6.52 mL/min/kg, the Cmax [5, 8] was 659 µg/mL and the CL renal ([5]; male, Sprague-Dawley, rat, urine and plasma, po, 1500 mg/kg) was 1.82 mL/min/kg. For the same molecule, the “GHB AUC” value [5, 9] was 233 (30.0) mg.min/ml and the GHB urinary excretion [5, 9] was 28.2 (10.1) %.

In the case of C[C@H](O)C(=O)O [L-lactate], the “effect on GHB extracellular fluid concentrations in the frontal cortex” value ([6]; higher doses, plasma steady state L-lactate concentrations ≈ 4–5 mM) is given as “decreased” and the “effect on GHB extracellular fluid concentrations in the frontal cortex” value ([6]; lower doses, plasma steady state L-lactate concentrations ≈ 1–2 mM) is given as “no significant effect”.
